What all share (type): biochemical
The target of assay [1] is PI3Kγ (p120γ)(h) (Homo sapiens, UniProt P48736). Put plainly: Assay for phosphatidylinositol 3-kinase gamma (PI3Kγ) activity, PI3K-HTRF kit. Conditions: TR-FRET; enzyme 1.45 μg/ml, 10 μM PIP2, 10 μM ATP. The gist of the method: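 Recombinant PI3Kγ (1.45 μg/ml final) preincubated ~10 min with compound, then reacted with 10 μM PIP2 and 10 μM ATP for 90 min at room temperature. PIP3 detected by HTRF (biotin-PIP3/Eu-PH domain/APC), 665/620 nm ratio after 6 h; IC50 from inhibition relative to controls.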

For assay [2], the target named is PI3Kα (p110α/p85α)(h) (Homo sapiens, UniProt P42336). Put plainly: Assay for phosphatidylinositol 3-kinase alpha (PI3Kα) activity, PI3K-HTRF kit. Conditions: TR-FRET; enzyme 0.3625 μg/ml, 10 μM PIP2, 10 μM ATP.
The target in assay [3] is PI3K β (p110β/p85α)(h) (Homo sapiens, UniProt P42338). Put plainly: Assay for phosphatidylinositol 3-kinase beta (PI3Kβ) activity, PI3K-HTRF kit. Conditions: TR-FRET; enzyme 0.725 μg/ml, 10 μM PIP2, 10 μM ATP. In general terms: Time-resolved FRET reads energy transfer from a long-lived donor to a nearby acceptor.
Assay [4] addresses PI3Kδ (p110δ/p85α)(h) (Homo sapiens, UniProt O00329). Put plainly: Assay for phosphatidylinositol 3-kinase delta (PI3Kδ) activity, PI3K-HTRF kit. Particulars: TR-FRET; enzyme 0.725 μg/ml, 10 μM PIP2, 10 μM ATP.

Chain of PI3K β (p110β/p85α)(h) (P42338 whole entry): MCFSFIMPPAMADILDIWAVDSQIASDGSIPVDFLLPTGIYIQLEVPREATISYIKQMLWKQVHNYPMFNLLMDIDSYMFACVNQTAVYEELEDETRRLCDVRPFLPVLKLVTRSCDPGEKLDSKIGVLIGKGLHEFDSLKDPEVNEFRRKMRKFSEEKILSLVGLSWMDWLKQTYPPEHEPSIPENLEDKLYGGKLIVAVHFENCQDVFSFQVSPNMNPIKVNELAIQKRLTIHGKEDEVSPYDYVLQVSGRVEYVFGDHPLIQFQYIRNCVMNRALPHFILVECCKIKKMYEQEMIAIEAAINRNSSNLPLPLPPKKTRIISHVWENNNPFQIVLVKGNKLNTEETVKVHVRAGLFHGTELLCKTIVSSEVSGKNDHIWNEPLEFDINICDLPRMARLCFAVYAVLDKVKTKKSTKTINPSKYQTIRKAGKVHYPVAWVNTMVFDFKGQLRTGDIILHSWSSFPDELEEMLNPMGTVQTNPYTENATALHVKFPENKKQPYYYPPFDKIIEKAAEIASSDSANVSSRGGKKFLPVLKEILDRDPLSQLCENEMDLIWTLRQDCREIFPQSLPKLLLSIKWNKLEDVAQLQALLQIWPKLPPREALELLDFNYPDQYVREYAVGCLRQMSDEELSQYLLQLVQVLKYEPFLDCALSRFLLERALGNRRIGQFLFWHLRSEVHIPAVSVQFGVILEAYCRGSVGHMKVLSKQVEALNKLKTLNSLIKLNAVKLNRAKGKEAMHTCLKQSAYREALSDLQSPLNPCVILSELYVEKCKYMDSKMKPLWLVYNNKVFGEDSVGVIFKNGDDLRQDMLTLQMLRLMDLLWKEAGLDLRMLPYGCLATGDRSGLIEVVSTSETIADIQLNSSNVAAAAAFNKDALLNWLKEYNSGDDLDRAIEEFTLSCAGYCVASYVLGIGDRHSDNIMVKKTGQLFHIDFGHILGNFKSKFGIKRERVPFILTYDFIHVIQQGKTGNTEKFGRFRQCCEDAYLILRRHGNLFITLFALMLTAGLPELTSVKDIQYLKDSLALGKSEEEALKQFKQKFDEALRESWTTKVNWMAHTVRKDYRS
Chain of PI3K β (p110β/p85α)(h) (P27986 whole entry partner): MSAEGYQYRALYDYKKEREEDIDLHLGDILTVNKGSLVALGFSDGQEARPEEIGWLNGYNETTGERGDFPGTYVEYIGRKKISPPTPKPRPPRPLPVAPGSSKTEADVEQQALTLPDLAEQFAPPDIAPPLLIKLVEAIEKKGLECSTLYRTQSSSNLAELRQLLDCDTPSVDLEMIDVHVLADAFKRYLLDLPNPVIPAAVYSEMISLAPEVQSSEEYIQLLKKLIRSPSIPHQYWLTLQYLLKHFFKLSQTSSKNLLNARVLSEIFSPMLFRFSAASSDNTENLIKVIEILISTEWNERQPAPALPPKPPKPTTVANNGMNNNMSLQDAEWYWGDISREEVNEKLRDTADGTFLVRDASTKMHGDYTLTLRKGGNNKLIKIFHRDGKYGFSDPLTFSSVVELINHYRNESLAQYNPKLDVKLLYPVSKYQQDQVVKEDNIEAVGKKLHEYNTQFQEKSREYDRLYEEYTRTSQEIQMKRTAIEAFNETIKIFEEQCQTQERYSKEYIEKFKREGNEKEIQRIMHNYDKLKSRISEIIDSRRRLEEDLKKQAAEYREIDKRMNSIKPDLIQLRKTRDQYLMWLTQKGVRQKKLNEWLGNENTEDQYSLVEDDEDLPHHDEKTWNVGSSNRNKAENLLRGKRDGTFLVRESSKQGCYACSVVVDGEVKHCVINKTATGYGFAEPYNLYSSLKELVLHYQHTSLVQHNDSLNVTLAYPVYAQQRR
Chain of PI3Kγ (p120γ)(h) (P48736 whole entry, the tested form may be a part): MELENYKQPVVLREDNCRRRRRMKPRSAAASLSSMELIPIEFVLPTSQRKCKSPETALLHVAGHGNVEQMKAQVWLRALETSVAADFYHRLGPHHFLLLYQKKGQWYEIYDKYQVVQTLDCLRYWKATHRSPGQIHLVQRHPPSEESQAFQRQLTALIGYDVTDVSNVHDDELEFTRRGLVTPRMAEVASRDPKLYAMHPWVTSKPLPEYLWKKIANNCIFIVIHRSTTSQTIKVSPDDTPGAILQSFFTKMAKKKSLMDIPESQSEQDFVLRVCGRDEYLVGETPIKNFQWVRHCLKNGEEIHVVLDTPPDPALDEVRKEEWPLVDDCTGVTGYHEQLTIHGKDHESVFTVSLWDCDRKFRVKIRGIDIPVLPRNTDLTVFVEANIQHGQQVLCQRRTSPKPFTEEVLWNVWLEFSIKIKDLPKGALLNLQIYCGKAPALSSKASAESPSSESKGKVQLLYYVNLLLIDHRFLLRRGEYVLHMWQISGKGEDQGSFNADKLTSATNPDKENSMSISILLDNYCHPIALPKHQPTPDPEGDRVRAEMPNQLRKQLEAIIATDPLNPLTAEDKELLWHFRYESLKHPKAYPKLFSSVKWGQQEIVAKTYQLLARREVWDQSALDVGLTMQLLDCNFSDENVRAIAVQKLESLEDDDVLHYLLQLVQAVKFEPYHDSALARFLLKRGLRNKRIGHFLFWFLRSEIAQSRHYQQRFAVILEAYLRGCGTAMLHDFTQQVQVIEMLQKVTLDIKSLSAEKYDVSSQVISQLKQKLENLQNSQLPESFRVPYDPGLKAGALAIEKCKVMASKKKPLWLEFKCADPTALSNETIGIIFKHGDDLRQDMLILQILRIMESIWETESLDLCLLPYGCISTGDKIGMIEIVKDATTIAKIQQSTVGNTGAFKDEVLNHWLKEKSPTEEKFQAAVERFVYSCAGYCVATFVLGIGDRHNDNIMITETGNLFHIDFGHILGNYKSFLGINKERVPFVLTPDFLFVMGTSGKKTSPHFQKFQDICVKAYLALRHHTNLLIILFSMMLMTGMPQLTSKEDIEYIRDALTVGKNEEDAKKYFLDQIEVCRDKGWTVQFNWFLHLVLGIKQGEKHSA
Chain of PI3Kα (p110α/p85α)(h) (P42336 whole entry): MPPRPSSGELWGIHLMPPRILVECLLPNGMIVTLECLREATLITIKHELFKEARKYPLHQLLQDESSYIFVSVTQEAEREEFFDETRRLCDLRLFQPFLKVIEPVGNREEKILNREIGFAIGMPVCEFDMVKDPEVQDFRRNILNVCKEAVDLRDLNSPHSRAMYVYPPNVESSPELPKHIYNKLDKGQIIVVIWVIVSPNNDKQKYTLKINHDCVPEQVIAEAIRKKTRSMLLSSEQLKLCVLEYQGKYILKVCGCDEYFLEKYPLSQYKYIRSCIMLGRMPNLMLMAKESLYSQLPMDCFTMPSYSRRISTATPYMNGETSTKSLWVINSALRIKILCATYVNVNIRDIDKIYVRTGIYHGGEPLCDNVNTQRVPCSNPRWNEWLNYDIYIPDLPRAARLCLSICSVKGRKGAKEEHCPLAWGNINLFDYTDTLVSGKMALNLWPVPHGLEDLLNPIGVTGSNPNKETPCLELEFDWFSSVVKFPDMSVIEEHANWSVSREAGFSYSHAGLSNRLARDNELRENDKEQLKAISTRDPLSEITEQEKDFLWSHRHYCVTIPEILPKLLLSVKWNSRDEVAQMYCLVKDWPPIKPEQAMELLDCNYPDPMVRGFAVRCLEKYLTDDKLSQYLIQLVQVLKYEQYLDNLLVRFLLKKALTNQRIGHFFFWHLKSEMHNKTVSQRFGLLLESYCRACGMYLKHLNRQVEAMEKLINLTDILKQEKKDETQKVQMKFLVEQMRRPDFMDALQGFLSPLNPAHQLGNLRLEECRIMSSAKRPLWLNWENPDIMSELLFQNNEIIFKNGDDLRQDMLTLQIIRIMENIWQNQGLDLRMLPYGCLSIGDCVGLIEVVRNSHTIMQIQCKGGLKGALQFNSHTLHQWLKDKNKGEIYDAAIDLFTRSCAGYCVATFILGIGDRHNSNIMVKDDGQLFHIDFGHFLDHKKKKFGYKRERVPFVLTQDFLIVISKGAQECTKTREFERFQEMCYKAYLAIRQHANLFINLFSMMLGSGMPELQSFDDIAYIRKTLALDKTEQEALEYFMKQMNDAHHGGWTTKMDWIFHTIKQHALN
Chain of PI3Kα (p110α/p85α)(h) (P27986 whole entry partner): as the sequence (P27986 whole entry partner) above
Chain of PI3Kδ (p110δ/p85α)(h) (O00329 whole entry): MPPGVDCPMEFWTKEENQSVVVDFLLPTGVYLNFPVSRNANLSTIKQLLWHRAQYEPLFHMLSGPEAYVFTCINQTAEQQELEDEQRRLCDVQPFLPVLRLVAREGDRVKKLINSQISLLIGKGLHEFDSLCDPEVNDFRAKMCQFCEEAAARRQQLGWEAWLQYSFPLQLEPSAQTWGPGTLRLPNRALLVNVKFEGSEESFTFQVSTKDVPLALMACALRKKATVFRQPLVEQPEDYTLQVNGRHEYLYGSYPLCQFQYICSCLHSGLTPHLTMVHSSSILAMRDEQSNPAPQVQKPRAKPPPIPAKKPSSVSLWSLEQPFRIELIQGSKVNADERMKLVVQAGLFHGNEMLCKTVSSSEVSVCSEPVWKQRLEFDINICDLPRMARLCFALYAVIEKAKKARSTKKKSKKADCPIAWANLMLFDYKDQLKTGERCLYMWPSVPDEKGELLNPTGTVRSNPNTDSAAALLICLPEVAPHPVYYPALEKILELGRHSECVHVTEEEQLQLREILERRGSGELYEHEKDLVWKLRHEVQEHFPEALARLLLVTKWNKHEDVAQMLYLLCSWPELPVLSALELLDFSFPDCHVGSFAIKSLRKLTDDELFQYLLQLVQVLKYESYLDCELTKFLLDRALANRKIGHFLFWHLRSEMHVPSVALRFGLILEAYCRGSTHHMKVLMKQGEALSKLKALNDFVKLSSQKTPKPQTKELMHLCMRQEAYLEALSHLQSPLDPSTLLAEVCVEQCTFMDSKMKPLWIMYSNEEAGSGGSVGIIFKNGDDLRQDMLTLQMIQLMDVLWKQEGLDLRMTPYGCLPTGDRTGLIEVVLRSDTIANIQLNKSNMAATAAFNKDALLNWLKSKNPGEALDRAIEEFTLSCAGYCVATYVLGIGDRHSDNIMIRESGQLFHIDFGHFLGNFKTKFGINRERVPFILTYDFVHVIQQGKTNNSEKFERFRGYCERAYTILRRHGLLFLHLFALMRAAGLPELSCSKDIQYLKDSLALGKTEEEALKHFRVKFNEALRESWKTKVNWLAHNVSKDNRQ
Chain of PI3Kδ (p110δ/p85α)(h) (P27986 whole entry partner): as the sequence (P27986 whole entry partner) above

Turning to `COC(=O)c1ccc(C#Cc2cncc3cc(/C=C4\SC(=O)NC4=O)oc23)cc1` [Example 532, (Z)-Methyl 4-([2-{(2,4-dioxothiazolidin-5-ylidene)methyl}furo[3,2-c]pyridin-7-yl]ethynyl)benzoate], the half-inhibitory concentration (IC50) was 33 nM in assay [1], 5 nM in assay [2], 1390 nM in assay [3] and 137 nM in assay [4].
Consider `O=C1NC(=O)/C(=C/c2cc3cncc(C#Cc4ccc(OC(F)(F)F)cc4)c3o2)S1` [Example 533], for which the IC50 in assay [1] worked out at 37 nM; in assay [2], 14 nM; in assay [3], 3720 nM; in assay [4] it was 2230 nM.
In the same order, the values of `O=C1NC(=O)/C(=C/c2cc3cncc(C#Cc4ccc(Cl)cc4)c3o2)S1` [Example 541, (Z)-5-([7-{(4-Chlorophenyl)ethynyl}furo[3,2-c]pyridin-2-yl]methylene)thiazolidine-2,4-dione] are 27 nM, 5 nM, 104 nM and 136 nM.
On the same counts, the results for `COC(=O)c1cccc(C#Cc2cncc3cc(/C=C4\SC(=O)NC4=O)oc23)c1` [Example 542, (Z)-Methyl 3-([2-{(2,4-dioxothiazolidin-5-ylidene)methyl}furo[3,2-c]pyridin-7-yl]ethynyl)benzoate] are 24 nM, 3 nM, over 10000 nM and 1270 nM.
With `N#Cc1ccc(C#Cc2cncc3cc(/C=C4\SC(=S)NC4=O)oc23)cc1` [Example 548, (Z)-4-([2-{(4-Oxo-2-thioxothiazolidin-5-ylidene)methyl}furo[3,2-c]pyridin-7-yl]ethynyl)benzonitrile], the IC50 in assay [1] amounted to 25 nM; in assay [2], 8 nM; in assay [3] it was 138 nM; in assay [4] it was 250 nM.
On the same counts, the results for `CC(C)c1ccccc1C#Cc1cncc2cc(/C=C3\SC(=S)NC3=O)oc12` [Example 554, (Z)-5-([7-{(2-Isopropylphenyl)ethynyl}furo[3,2-c]pyridin-2-yl]methylene)-2-thioxothiazolidin-4-one] are 78 nM, 67 nM, 8620 nM and over 10000 nM.
Regarding `O=C1NC(=S)S/C1=C\c1cc2cncc(C#Cc3ccsc3)c2o1` [Example 555, (Z)-5-[{7-(Thiophen-3-ylethynyl)furo[3,2-c]pyridin-2-yl}methylene]-2-thioxothiazolidin-4-one], the IC50 in assay [1] was 18 nM; in assay [2], 5 nM; in assay [3] it was 3470 nM; in assay [4], 120 nM.
Consider `COC(=O)c1ccccc1C#Cc1cncc2cc(/C=C3\SC(=S)NC3=O)oc12` [Example 558, (Z)-Methyl 2-([2-{(4-oxo-2-thioxothiazolidin-5-ylidene)methyl}furo[3,2-c]pyridin-7-yl]ethynyl)benzoate], for which the IC50 in assay [1] stood at 10 nM; in assay [2], 3 nM; in assay [3] it was 468 nM; in assay [4] it was 41 nM.
Regarding `COC(=O)c1cccc(C#Cc2cncc3cc(/C=C4\SC(=S)NC4=O)oc23)c1` [Example 569, (Z)-Methyl 3-([2-{(4-oxo-2-thioxothiazolidin-5-ylidene)methyl}furo[3,2-c]pyridin-7-yl]ethynyl)benzoate], the IC50 in assay [1] worked out at 16 nM; in assay [2] it was 1 nM; in assay [3] it was 5920 nM; in assay [4] it was 493 nM.
For `CN(C)S(=O)(=O)c1ccc(C#Cc2cncc3cc(/C=C4\SC(=S)NC4=O)oc23)cc1` [Example 571, (Z)—N,N-Dimethyl-4-([2-{(4-oxo-2-thioxothiazolidin-5-ylidene)methyl}furo[3,2-c]pyridin-7-yl]ethynyl)benzenesulfonamide], the IC50 worked out at 15 nM in assay [1], 1 nM in assay [2], 2410 nM in assay [3] and 78 nM in assay [4].

In general, IC50 refers to the concentration that gives 50% inhibition. A high value points to lower potency.

These data come from patent publication US9493478B2, “Fused ring compound containing furan or salt thereof and pharmaceutical composition comprising same” (YUHAN CORPORATION, priority 2012, dated 2016).
